test system: K86415-001-R-J1-PDC complex spheroids, viability; assay: Anticancer human tumor K86415-001-R-J1-PDC patient-derived lung adenocarcinoma cell line growth inhibition [RAS]; conditions: second compound 0.01 µM; first compound 1 µM; stronger effect = lower value
How it was run: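 Multi-cell-type spheroids: tumor cells plus HUVEC endothelial cells and mesenchymal stem cells. RAS-pathway inhibitors were combined with targeted agents, each dosed in half-log steps down from clinical Cmax, or from 10 microM when Cmax was unknown.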
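Further: spheroids exposed to agents for seven days before readout.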

SMILES	viability, T/C [%]
CCC(CC)c1cc(NC2CCC(N)C2)n2nccc2n1 (configuration not stated) + C=CC(=O)N1CCN(c2nc(OCC3CCCN3C)nc3c(F)c(-c4nc(N)cc(C)c4C(F)(F)F)c(Cl)cc23)C(C)C1	23.3
CCN1CCN(Cc2ccc(Nc3ncc(F)c(-c4cc(F)c5nc(C)n(C(C)C)c5c4)n3)nc2)CC1 + C=CC(=O)N1CCN(c2nc(OCC3CCCN3C)nc3c(F)c(-c4nc(N)cc(C)c4C(F)(F)F)c(Cl)cc23)C(C)C1	24.8
Cc1nc(N2CCC3(CC2)COC(C)C3N)c(CO)nc1Sc1ccnc(N)c1Cl (configuration not stated) + C=CC(=O)N1CCN(c2nc(OCC3CCCN3C)nc3c(F)c(-c4nc(N)cc(C)c4C(F)(F)F)c(Cl)cc23)C(C)C1	4.7
NC1c2ccccc2OC12CCN(c1cnc3c(N4CCCc5ncccc54)n[nH]c3n1)CC2 (configuration not stated) + C=CC(=O)N1CCN(c2nc(OCC3CCCN3C)nc3c(F)c(-c4nc(N)cc(C)c4C(F)(F)F)c(Cl)cc23)C(C)C1	4.12

same assay, conditions: second compound 0.01 µM; first compound 3.16 µM; stronger effect = lower value

SMILES	viability, T/C [%]
CC1(O)CCCC1n1c(=O)c(C(F)F)cc2cnc(NC3CCN(S(C)(=O)=O)CC3)nc21 (configuration not stated) + C=CC(=O)N1CCN(c2nc(OCC3CCCN3C)nc3c(F)c(-c4nc(N)cc(C)c4C(F)(F)F)c(Cl)cc23)C(C)C1	18.6
CCC(CC)c1cc(NC2CCC(N)C2)n2nccc2n1 (configuration not stated) + C=CC(=O)N1CCN(c2nc(OCC3CCCN3C)nc3c(F)c(-c4nc(N)cc(C)c4C(F)(F)F)c(Cl)cc23)C(C)C1	2.98
Cc1nc(N2CCC3(CC2)COC(C)C3N)c(CO)nc1Sc1ccnc(N)c1Cl (configuration not stated) + C=CC(=O)N1CCN(c2nc(OCC3CCCN3C)nc3c(F)c(-c4nc(N)cc(C)c4C(F)(F)F)c(Cl)cc23)C(C)C1	4.74
NC1c2ccccc2OC12CCN(c1cnc3c(N4CCCc5ncccc54)n[nH]c3n1)CC2 (configuration not stated) + C=CC(=O)N1CCN(c2nc(OCC3CCCN3C)nc3c(F)c(-c4nc(N)cc(C)c4C(F)(F)F)c(Cl)cc23)C(C)C1	4.26

same assay, conditions: second compound 0.01 µM; first compound 10 µM; stronger effect = lower value

SMILES	viability, T/C [%]
CC1(O)CCCC1n1c(=O)c(C(F)F)cc2cnc(NC3CCN(S(C)(=O)=O)CC3)nc21 (configuration not stated) + C=CC(=O)N1CCN(c2nc(OCC3CCCN3C)nc3c(F)c(-c4nc(N)cc(C)c4C(F)(F)F)c(Cl)cc23)C(C)C1	5.34
CCC(CC)c1cc(NC2CCC(N)C2)n2nccc2n1 (configuration not stated) + C=CC(=O)N1CCN(c2nc(OCC3CCCN3C)nc3c(F)c(-c4nc(N)cc(C)c4C(F)(F)F)c(Cl)cc23)C(C)C1	2.44
Cc1nc(N2CCC3(CC2)COC(C)C3N)c(CO)nc1Sc1ccnc(N)c1Cl (configuration not stated) + C=CC(=O)N1CCN(c2nc(OCC3CCCN3C)nc3c(F)c(-c4nc(N)cc(C)c4C(F)(F)F)c(Cl)cc23)C(C)C1	5.17
NC1c2ccccc2OC12CCN(c1cnc3c(N4CCCc5ncccc54)n[nH]c3n1)CC2 (configuration not stated) + C=CC(=O)N1CCN(c2nc(OCC3CCCN3C)nc3c(F)c(-c4nc(N)cc(C)c4C(F)(F)F)c(Cl)cc23)C(C)C1	4.5

same assay, conditions: second compound 0.0316 µM; first compound 0.00316 µM; stronger effect = lower value

SMILES	viability, T/C [%]
CCN1CCN(Cc2ccc(Nc3ncc(F)c(-c4cc(F)c5nc(C)n(C(C)C)c5c4)n3)nc2)CC1 + C=CC(=O)N1CCN(c2nc(OCC3CCCN3C)nc3c(F)c(-c4nc(N)cc(C)c4C(F)(F)F)c(Cl)cc23)C(C)C1	9.79

same assay, conditions: second compound 0.0316 µM; first compound 0.01 µM; stronger effect = lower value

SMILES	viability, T/C [%]
CCN1CCN(Cc2ccc(Nc3ncc(F)c(-c4cc(F)c5nc(C)n(C(C)C)c5c4)n3)nc2)CC1 + C=CC(=O)N1CCN(c2nc(OCC3CCCN3C)nc3c(F)c(-c4nc(N)cc(C)c4C(F)(F)F)c(Cl)cc23)C(C)C1	12.9

same assay, conditions: second compound 0.0316 µM; first compound 0.0316 µM; stronger effect = lower value

SMILES	viability, T/C [%]
CC1(O)CCCC1n1c(=O)c(C(F)F)cc2cnc(NC3CCN(S(C)(=O)=O)CC3)nc21 (configuration not stated) + C=CC(=O)N1CCN(c2nc(OCC3CCCN3C)nc3c(F)c(-c4nc(N)cc(C)c4C(F)(F)F)c(Cl)cc23)C(C)C1	12.2
CCC(CC)c1cc(NC2CCC(N)C2)n2nccc2n1 (configuration not stated) + C=CC(=O)N1CCN(c2nc(OCC3CCCN3C)nc3c(F)c(-c4nc(N)cc(C)c4C(F)(F)F)c(Cl)cc23)C(C)C1	10.7
CCN1CCN(Cc2ccc(Nc3ncc(F)c(-c4cc(F)c5nc(C)n(C(C)C)c5c4)n3)nc2)CC1 + C=CC(=O)N1CCN(c2nc(OCC3CCCN3C)nc3c(F)c(-c4nc(N)cc(C)c4C(F)(F)F)c(Cl)cc23)C(C)C1	11
Cc1nc(N2CCC3(CC2)COC(C)C3N)c(CO)nc1Sc1ccnc(N)c1Cl (configuration not stated) + C=CC(=O)N1CCN(c2nc(OCC3CCCN3C)nc3c(F)c(-c4nc(N)cc(C)c4C(F)(F)F)c(Cl)cc23)C(C)C1	9.15
NC1c2ccccc2OC12CCN(c1cnc3c(N4CCCc5ncccc54)n[nH]c3n1)CC2 (configuration not stated) + C=CC(=O)N1CCN(c2nc(OCC3CCCN3C)nc3c(F)c(-c4nc(N)cc(C)c4C(F)(F)F)c(Cl)cc23)C(C)C1	6.59

same assay, conditions: second compound 0.0316 µM; first compound 0.1 µM; stronger effect = lower value

SMILES	viability, T/C [%]
CC1(O)CCCC1n1c(=O)c(C(F)F)cc2cnc(NC3CCN(S(C)(=O)=O)CC3)nc21 (configuration not stated) + C=CC(=O)N1CCN(c2nc(OCC3CCCN3C)nc3c(F)c(-c4nc(N)cc(C)c4C(F)(F)F)c(Cl)cc23)C(C)C1	10.1
CCC(CC)c1cc(NC2CCC(N)C2)n2nccc2n1 (configuration not stated) + C=CC(=O)N1CCN(c2nc(OCC3CCCN3C)nc3c(F)c(-c4nc(N)cc(C)c4C(F)(F)F)c(Cl)cc23)C(C)C1	13.9
CCN1CCN(Cc2ccc(Nc3ncc(F)c(-c4cc(F)c5nc(C)n(C(C)C)c5c4)n3)nc2)CC1 + C=CC(=O)N1CCN(c2nc(OCC3CCCN3C)nc3c(F)c(-c4nc(N)cc(C)c4C(F)(F)F)c(Cl)cc23)C(C)C1	10.2
Cc1nc(N2CCC3(CC2)COC(C)C3N)c(CO)nc1Sc1ccnc(N)c1Cl (configuration not stated) + C=CC(=O)N1CCN(c2nc(OCC3CCCN3C)nc3c(F)c(-c4nc(N)cc(C)c4C(F)(F)F)c(Cl)cc23)C(C)C1	6.95
NC1c2ccccc2OC12CCN(c1cnc3c(N4CCCc5ncccc54)n[nH]c3n1)CC2 (configuration not stated) + C=CC(=O)N1CCN(c2nc(OCC3CCCN3C)nc3c(F)c(-c4nc(N)cc(C)c4C(F)(F)F)c(Cl)cc23)C(C)C1	6.76

same assay, conditions: second compound 0.0316 µM; first compound 0.316 µM; stronger effect = lower value

SMILES	viability, T/C [%]
CC1(O)CCCC1n1c(=O)c(C(F)F)cc2cnc(NC3CCN(S(C)(=O)=O)CC3)nc21 (configuration not stated) + C=CC(=O)N1CCN(c2nc(OCC3CCCN3C)nc3c(F)c(-c4nc(N)cc(C)c4C(F)(F)F)c(Cl)cc23)C(C)C1	10.1
CCC(CC)c1cc(NC2CCC(N)C2)n2nccc2n1 (configuration not stated) + C=CC(=O)N1CCN(c2nc(OCC3CCCN3C)nc3c(F)c(-c4nc(N)cc(C)c4C(F)(F)F)c(Cl)cc23)C(C)C1	11.7
CCN1CCN(Cc2ccc(Nc3ncc(F)c(-c4cc(F)c5nc(C)n(C(C)C)c5c4)n3)nc2)CC1 + C=CC(=O)N1CCN(c2nc(OCC3CCCN3C)nc3c(F)c(-c4nc(N)cc(C)c4C(F)(F)F)c(Cl)cc23)C(C)C1	11

— PubChem BioAssay AID2060893 (Molecular Pharmacology Branch, DTP, NCI, 2025)
